Tests used:
Assay type in all cases: in vivo
[1] = test system: Bemisia tabaci ESP-00; assay: Leaf-dip bioassay, 2nd-instar nymphs, multi-resistant strain ESP-00
Description: (§1) Larvale Tauch-Bioassays wurden mit geringfügigen Änderungen gemäß Elbert und Nauen (1996) durchgeführt. Die echten Blätter einer drei Wochen alten Baumwollpflanze wurden alle außer einem entfernt. Das verbleibende Blatt wurde auf eine Größe von ca. 15-20 cm^2 zurechtgeschnitten. Die Pflanzen wurden ohne Verwendung von Clip-Käfigen mit adulten Weißen Fliegen infiziert (ca. 20-30 adulte Tiere pro Blatt für 6-7 h). Die Weißen Fliegen wurden dann entfernt und zum geeigneten Zeitpunkt (gewöhnlich nach 10-12 d wenn die Nymphen im zweiten Stadium vorherrschten) wurden die infizierten Blätter für 5 sec in serielle wässrige Insektizidlösungen (s.o.) getaucht. Die prozentuale Mortalität wurde an Tag 21-23 bei ca. 24 °C gemessen, sobald alle Überlebenden die Puppenstadien durchschritten hatten. Jedes Insektizid wurde mindestens dreifach mit 2- oder 3-fach Bestimmungen pro Konzentration getestet.
(§2) LC50-Werte wurden aus Probit-Regressionen unter Verwendung des Computerprogramms POLO-PC 2 (LeOra Software, Berkeley, USA) berechnet.
(§3) Tabelle 1. Log-Dosis Probit Mortalitätsdaten für verschiedene Klassen von Insektiziden erhalten aus Blatt-Tauch-Bioassays gegen adulte Tiere zweier Bemisia tabaci Stämme, SUD-S und ESP-00, die bekanntermaßen Insektizid-empfindlich (SUD-S) bzw. multiresistent (ESP-00) sind (Stumpf und Nauen, 2003). Mortalität wurde nach 72 h bestimmt, mit Ausnahme von Buprofezin (10-12 d).

[2] = test system: Bemisia tabaci ESP-00; assay: Leaf-dip bioassay, adult whiteflies, multi-resistant strain ESP-00; conditions: adults; for ESP-00 LC50: multi-resistant strain ESP-00, mortality after 72 h
Text: (§4) Es wurden Versuche durchgeführt, um die überlegene Blattwirkung von Enaminocarbonylverbindungen gegen adulte Tiere eines Stamms von Bemisia tabaci zu zeigen, der bekanntermaßen resistent ist gegen Neonikotinoid-Insektizide sowie andere Insektizidklassen, einschließlich Insekten-Wachstumsregulatoren (wie Buprofezin) und Antifeedants (Substanzen, die einen Schaderreger vom Fraß abhalten) (wie Pymetrozin).
(§5) Baumwollblattscheiben (30 mm im Durchmesser) wurden für 5 sec in wässrige Lösungen technischer Insektizide, enthaltend 0,2 g/l Triton-X-100 als nicht-ionisches Benetzungsmittel, getaucht. Luftgetrocknete Blattscheiben wurden dann mit der adaxialen Seite nach unten auf ein Agarbett (12 g/l) in einer kleinen Petrischale (40 mm im Durchmesser) gelegt. Adulte Weiße Fliegen wurden mittels eines Vakuum-getriebenen Aspirators aus Aufzuchtkäfigen eingesammelt und 20 adulte Tiere wurden nach kurzer CO2-Narkose auf die Blattscheiben gelegt. Anschließend wurde jede Petrischale mit einem belüfteten Deckel verschlossen und umgedreht aufbewahrt. Nach 72 h wurde die Mortalität der Weißen Fliegen bestimmt. Jedes Insektizid wurde mindestens dreifach mit 2-oder 3-fach Bestimmungen pro Konzentration getestet.
as §2, §3

[3] = test system: Bemisia tabaci SUD-S; assay: Leaf-dip bioassay, 2nd-instar nymphs, insecticide-susceptible strain SUD-S; conditions: nymphs in 2nd stage, mortality 10-12 d
Description: as §1, with “Die prozentuale Mortalität wurde an Tag 21-23 bei ca. 24 °C gemessen, sobald alle Überlebenden die Puppenstadien durchschritten hatten.” left out
as §2, §3

[4] = test system: Bemisia tabaci SUD-S; assay: Leaf-dip bioassay, adult whiteflies, insecticide-susceptible strain SUD-S; conditions: adults, mortality after 72 h
Text: as §4, §5, §2, §3

SMILES | Kreuzresistenz von Nymphen im zweiten Stadium des Stamms ESP-00 ([1]; 2nd-stage nymphs, result in words) | ESP-00 LC50 ([1]; nymphs in 2nd stage, multi-resistant strain ESP-00, mortality 10-12 d) | akute Kurzzeiteffekte gegen adulte Tiere von B. tabaci ([2]; strain not specified, result in words) | SUD-S LC50 [3] | SUD-S LC50 [4] | ESP-00 LC50 [2] | Resistenz / Kreuz-resistenz von adulten B. tabaci Tieren des Stamms ESP-00 im Vergleich zu SUD-S ([2]; leaf-dip, result in words)
CC(C)N1C(=O)N(c2ccccc2)CS/C1=N\C(C)(C)C [Buprofezin] | starke Kreuzresistenz | 260 ppm | keine akuten Kurzzeiteffekte | 0.27 ppm | – | – | –
CN/C(=N/CC1CCOC1)N[N+](=O)[O-] (centres unmarked) [Dinotefuran] | – | – | – | – | 0.17 ppm | 9.8 ppm | –
CN1COCN(Cc2cnc(Cl)s2)/C1=N\[N+](=O)[O-] [Thiamethoxam] | – | – | – | – | 1.1 ppm | 76 ppm | –
CC1=NNC(=O)N(/N=C/c2cccnc2)C1 [Pymetrozin] | – | – | – | – | 0.49 ppm | 360 ppm | starke Resistenz

Reference: patent EP2198709A1, “Method for treating resistant animal pests” (Bayer CropScience AG, priority 2008, dated 2010)
